Laboratory results as given in patent publication US9737487B2, “Cyclodextrin compositions encapsulating a selective ATP inhibitor and uses thereof” (The Johns Hopkins University, priority 2014, dated 2017).
Where a name gives a salt, the structure may show the parent alone.

What was measured:
MiaPaCa-2 cells = test: Matrigel invasion assay, MiaPaCa-2; format: cell-based, human; conditions: sub-lethal concentrations, 48 hrs.
Protocol: (§1) The ability of 3-BrPA to inhibit tumor invasion was studied using a matrigel invasion assay, as well as gelatin zymography (Hu and Beeton (2010) J. Visual. Exp. 45:2445; Scott et al. (2011) J. Visual. Exp. 58:e3525). For the matrigel invasion assays, a coating buffer containing 0.01 M Tris and 0.7% sodium chloride was prepared and used to dilute the matrigel basement membrane (BD Biosciences, #356234) to 300 ug/ml. Subsequently, Boyden chambers (Transwell, Corning; 6.5 mm-diameter, 8 um pore size) were coated with 100 μl matrigel solution and stored at 37° C. for 2 hrs. to allow for gelatination. Approximately 7.5×10^4 cells were resuspended in 500 μl FBS-free medium and plated into the upper chamber of the insert, which was then placed into a 24-well plate containing […] FBS-containing medium. After overnight incubation at 37° C., various amounts of 3-BrPA dissolved in PBS were added to the upper chamber. Fourty-eight hours later, non-invasive cells were removed from the matrigel with a cotton swab. Invaded cells adherent to the bottom side of the permeable insert were fixed and stained with the Diff Quik Stain Kit (Polysciences Inc.). […] Invasion of cells was quantified by measuring the area of stained cells after treatment compared to untreated samples at 10× magnification.

Suit-2 cells [1] = test: Matrigel invasion assay, Suit-2; format: cell-based, human; conditions: sub-lethal concentrations, 72 hrs.
Protocol: as §1

[2] = system: matrix-metalloproteinase 9 (MMP-9); test: MMP-9 secretion by gelatin zymography and immunoblotting, MiaPaCa-2; format: cell-based, human; conditions: 24 hrs., dose that did not induce apoptosis or reduce cell viability
Protocol: (§2) Zymography assays were performed to determine the activity of secreted MMP-9. Accordingly, 4×10^6 Suit-2 cells and 2.5×10^6 lucMiaPaCa-2 cells were seeded in 75 cm^2-flasks and incubated overnight at 37° C. under normoxic conditions. The following day, fresh FBS-free medium containing different concentrations of 3-BrPA was added and cells were incubated for an additional 24 hrs. Subsequently, supernatants were collected, filtered, and the final protein concentrations were determined using the 2D Quant Kit (GE Healthcare). After adjustment for concentration, each sample was loaded onto two 10% gelatin zymography gels (Novex, Invitrogen). Following electrophoresis, proteins in one of the two gels were renaturated and enzymatic digestion was allowed overnight at 37° C. in a developing buffer. The gel was stained with 4 parts 0.1% Coomassie Brilliant Blue in 1 part 100% methanol for 24 hrs. and washed with distilled (DI) water until digested areas were detectable as white bands. Western Blot analysis was performed using the duplicate gel. Proteins were blotted onto a PVDF-Membrane and blocked using 5% skimmed milk in 1×TBS and 0.1% Tween in DI (TBST). […] The HRP provided an […] signal (ECL Kit, GE Healthcare), which was analyzed with ImageJ 1.46r software (Wayne Rasband, National Institute of Health) and used to quantify signal intensity by comparing line integrals.

[3] = system: matrix-metalloproteinase 9 (MMP-9); test: MMP-9 secretion by gelatin zymography and immunoblotting, Suit-2; format: cell-based, human; conditions: 24 hrs., dose that did not induce apoptosis or reduce cell viability
Protocol: as §2

[4] = Comparative dose escalation studies in non-tumor-bearing animals; format: in vivo, mice; conditions: after a single injection
Protocol: The anti-cancer efficacy of systemically delivered β-CD-3-BrPA was tested using a xenograft model of human pancreatic cancer in athymic nude mice. Prior to choosing the therapeutic dose for more detailed studies, comparative dose escalation studies in non-tumor-bearing animals were performed for both β-CD-3-BrPA and free 3-BrPA. […] animals with orthotopically-implanted and BLI- and USI-confirmed MiaPaCa-2 tumors were then randomized to receive intraperitoneal (i.p.) injections of β-CD-3-BrPA (N=21), gemcitabine (N=7), or β-CD (N=7). An additional group of animals with orthotopic implants (N=7) was treated with free 3-BrPA. […] At the end of the experiment (Day 28), only 2/7 animals (28%) treated with the free drug were still alive (FIG. 12, Panel C). […] After four weeks of treatment, a comparison of BLI signal intensity between the groups was performed. […] After achieving this endpoint, animals were sacrificed and tumors were harvested for further analysis. All animals were subjected to necropsies and organs (brain, heart, lungs, bowel, liver, and kidneys) were harvested for the analysis of potential tissue damage.

[5] = system: orthotopic MiaPaCa-2 tumors; test: Orthotopic lucMiaPaCa-2 xenograft, systemic treatment with BLI follow-up, survival and necropsy (Example 6); format: in vivo, mice
Protocol: Male athymic nude mice (body weight, 20-25 g; 4 weeks old; Crl:NU (NCr)-Fox1^nu; Charles River Laboratory, Germantown, Md., USA) were used in accordance with institutional guidelines under approved Animal Care and Use Committee protocols. Mice were maintained in laminar flow rooms at constant temperature and humidity with food and water given ad libitum. Orthotopic xenograft tumors were generated by implantation of 1.5×10^6 lucMiaPaCa-2, suspended in 50 μl PBS, into the tail of the pancreas in anesthetized mice. To accomplish this, mice were placed into a clean anesthesia induction chamber (oxygen flow rate, 1 liter/minute; isoflurane concentration of 3-4%). Upon loss of the righting reflex, animals were placed on the surgical procedure surface, where a nose cone was used to maintain anesthesia (oxygen flow, 0.8 liters/minute; Isoflurane concentration, 1.5-2%). A small, left abdominal flank incision was made, and the pancreas was exteriorized to inject the cell solution using a 30 G Hamilton syringe. A successful subcapsular intrapancreatic injection was identified by the appearance of a fluid bleb without intraperitoneal leakage. The abdominal cavity was closed with a double-layer of non-absorbable suture material (Kim et al. (2009) Nat. Protocol. 4:1670-1680).
Tumor viability was confirmed via in vivo bioluminescence imaging (BLI) on day 7 after the surgical implantation. Anesthetized tumor-bearing mice were injected intraperitoneally with D-luciferin 150 mg/kg and optically imaged 5 minutes later using the IVIS 200 system (Xenogen). The pseudocolor image representing the spatial distribution of photons was overlaid on a previously acquired grayscale photographic image. A region of interest (ROI) was created to include the optical tumor image. Signal intensity was quantified within the ROI in photons/second/squared centimeter/steradian (p/s/cm2/Sr) after a 10-second exposure using Living Image software (Xenogen). Additionally, orthotopic growth of the tumors was confirmed prior to treatment using small-animal ultrasound imaging (USI). In brief, anesthetized mice were subjected to examination using the VEVO2100 (Visual Sonics Inc., Toronto, Canada, kindly provided by Dr. Harry C. Dietz) by applying a MS-550D MicroScan transducer probe with 40 MHz (broadband with 22-55 MHz). Tumor localization was confirmed using the cranial tip of the left kidney and the caudal tip of the spleen as anatomic landmarks (Ota et al. (2013) Target. Oncol. 8:145-151; Tuli et al. (2012) Translat. Oncol. 5:77-84). […]

[6] = system: subcutaneous pancreatic cancer xenografts; conditions: 5 mg/kg, twice per week, systemic; cited from earlier work
[7] = in vivo, after systemic administration; cited from earlier work
lucMiaPaCa-2 cells = test: Monolayer cell culture viability assay (CellTiter-Glo), normoxic or hypoxic, lucMiaPaCa-2; format: cell-based; conditions: Homo sapiens; normoxic, 72 hrs. exposure; barely achieved
Protocol: (§3) Two human pancreatic adenocarcinoma cell lines, lucMiaPaCa-2 (stably transfected with the luciferase-aminoglycoside phosphotransferase fusion gene, kindly provided by Dr. Phuoc T. Tran) and Suit-2 (kindly provided by Dr. Shinichi Ota, Japan) were cultured in RPMI or MEM media, respectively, both supplemented with 10% FBS and 1% Penicillin-Streptomycin. The effects of different drugs on cell viability were determined by quantifying intracellular adenosine triphosphate (ATP) levels using a luminescence-based kit (CellTiter-Glo, Promega) and a multilable 96-well plate (Costar). The accuracy and reproducibility of viability measurements using this luminiscence-based kit in lucMiaPaCa-2 cells was confirmed using the Dual-Reporter assay kit (Promega). In brief, 5×10^3 cells were seeded in triplicate and incubated for 72 hrs. under normoxic or hypoxic (1% O2-level, balanced with CO2 and nitrogen within a controlled atmosphere chamber) conditions. Indicated amounts of free 3-BrPA, 1:1-β-CD-3-BrPA or β-CD as a control were dissolved in PBS and added to the medium for 24 hrs. of treatment. For the experiments with gemcitabine, cells were incubated for 24 hrs. prior to a 72 hrs. exposure to the drug. Cell viability was determined following the manufacturer's protocol.

Suit-2 cells [8] = test: Monolayer cell culture viability assay (CellTiter-Glo), Suit-2; format: cell-based; conditions: Homo sapiens, normoxic, 72 hrs. exposure, barely achieved
Protocol: as §3

## O=C(O)C(=O)CBr [3-BrPA, 3-bromopyruvate]
MiaPaCa-2 cells
  drug concentration showing a reduction in invasion (as low as): 12.5 µM
Suit-2 cells [1]
  drug concentration showing a reduction in invasion (as low as): 12.5 µM
[2]
  concentration at which marked reduction in the secretion of MMP-9 begins: 6.25 µM
[3]
  concentration at which marked reduction in the secretion of MMP-9 begins: 6.25 µM
[4]
  median lethal dose (LD50): 10 mg/kg
[5]; daily i.p. 5 mg/kg in 500 μl saline
  animals died before the acquisition of the first follow-up BLI: 3/7
[5]; daily i.p. 5 mg/kg, 28 days
  loss of animals at the end of the experiment (treatment-related toxicity, Kaplan-Meier): 5/7
[5]; daily i.p. 5 mg/kg, Day 28
  animals still alive at the end of the experiment: 2/7
[6]
  efficacy of 3-BrPA alone: did not report any significant efficacy
[7]
  time of inactivation through interaction with serum proteins (as early as): 2 to 3 min

## Nc1ccn([C@@H]2O[C@H](CO)[C@@H](O)C2(F)F)c(=O)n1 [gemcitabine, gemcitabine hydrochloride salt]
lucMiaPaCa-2 cells
  IC50: 0.1 µM
Suit-2 cells [8]
  IC50: 0.1 µM
[5]; after four weeks of treatment
  BLI signal increase as compared to baseline: 60 fold
